“Also recorded” adds a separate entry of the source. Where two headings read alike, the source gives them in different places. Each block holds one molecule with its values, some of them ahead of it. Non-standard residues stand in square brackets, D forms with d. Residues, ends and D or L forms follow the SMILES beside them. No end group written: not given here.
Key:
[1] = Combination GHRP and IGF-1 treatment of normal rats (7 days); format: in vivo, rat; settings: 7 days, twice daily sc injections, normal adult female rats; GHRH 300, GHRPs 50, L-692,585 150 μg/dose
Procedure: The rats were weighed on the day of surgery and randomized into 12 groups of 5/group using a grouping program.
The GH secretagogues were given by sc. injection twice daily, each dose of 100 μl. […] Recombinant human IGF-1 (rhIGF-1) at 2.5 mg/ml in acetate buffer was loaded into osmotic minipumps (Alza, Palo Alto, model 2ML1, pump rate 10.16 μl/hr for 7 days, fill volume 2086 μl). Other pumps were filled with acetate buffer. […] The delivered dose of rhIGF-1 was therefore 610 μg/day.
The next day the osmotic pumps were inserted into rats. […] All rats not receiving rhIGF-1 containing pumps were implanted with pumps delivering the acetate buffer excipient. […] The treatment groups were;
The rats were sacrificed using carbon dioxide, bled from the heart and organs taken. Serum chemistries were measured by standard automated procedures.

growth hormone secretion = experiment: GHRP induced growth hormone secretion, intravenous administration (Rat IV); format: in vivo; settings: Table II; iv tail vein injection, anesthetized weanling female rats, serum GH 10 min after injection
Method in brief: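 Female Sprague Dawley rats (24-30 days, 50-90 g) under intraperitoneal pentobarbitone received graded intravenous tail-vein peptide doses in pH 5.0 sodium acetate/mannitol buffer 20 min post-anaesthesia. Blood by cardiac puncture 10 min after dosing; serum GH measured by rat GH ELISA in duplicate.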

rat pituitary cell = settings: cited from earlier work
rat pituitary cells [2] = target: T1, rat pituitary cells (Rattus norvegicus, UniProt O08725)
T1 sequence (O08725 whole entry): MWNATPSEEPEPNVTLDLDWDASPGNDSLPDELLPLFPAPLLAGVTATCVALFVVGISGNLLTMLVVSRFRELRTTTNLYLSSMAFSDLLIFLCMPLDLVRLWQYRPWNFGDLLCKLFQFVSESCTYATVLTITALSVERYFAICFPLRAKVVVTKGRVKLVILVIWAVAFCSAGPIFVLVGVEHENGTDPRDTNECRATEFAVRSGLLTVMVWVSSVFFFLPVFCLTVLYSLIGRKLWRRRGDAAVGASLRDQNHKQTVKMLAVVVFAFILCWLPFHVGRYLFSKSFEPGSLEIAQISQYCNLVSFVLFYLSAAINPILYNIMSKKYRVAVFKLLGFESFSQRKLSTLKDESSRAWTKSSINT
Method in brief: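 Primary rat anterior pituitary cells, cultured three days in DME low glucose/10% FBS, were washed, pre-incubated twice for 15 min, then challenged 15 min with test compounds (DMSO ≤0.1%) at 37 °C. Released GH was measured by two-site ELISA; EC50 came from 4-parameter fits, mean of three to four independent determinations.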

rat pituitary cells [3] = target: T1, rat pituitary cells; experiment: Rat “pit” cell challenges: combinations with GHRP-6/GHRH, desensitization, somatostatin suppression, GHRP antagonist; format: cell-based
Procedure: Dispersion: Adult female Sprague-Dawley (160-180 g., Charles River) rats were group-caged in a 12:12 light:dark cycle with food and water available ad libitum. Pituitaries from ten rats were removed, the posterior pituitary discarded and the anterior pituitary placed in Hanks' Balanced Salt Solution (HBSS: without calcium chloride, w/o magnesium chloride, w/o magnesium sulfate; Gibco) containing 20 mM HEPES (Gibco) and 100 U/ml penicillin streptomycin (PS: JRH Biosciences). Under sterile conditions, pituitaries were rinsed twice then minced into small fragments with a razor blade. Fragments were resuspended in 5 ml of HBSS/HEPES containing 20 mg collagenase (Serva 17449) and 200 ml of 1 mg/ml DNase (Sigma) for a 40 min. incubation in a 37° C. gyrotory water bath shaker (New Brunswick Scientific Model G76; setting 10). After the incubation, fragments were triturated to yield small clumps and single cells. The cells were centrifuged 1000× g for 5 min, resuspended, counted and plated at a final cell concentration of 100,000 cells/ml. Incubation media was DME low glucose media w/NaHCO3 (Gibco) containing 20 mM hepes, 100 U/ml PS and 10% FBS (Hyclone A-111-L). Cells were plated at 0.5 ml per well in 48 well plates (Falcon) and incubated at 37° C. in 5% C02 for three days. […] The highest concentration of DMSO in media was 0.1%. Stock solutions (1 mM) of rat GHRH, somatostatin (Sigma) and GHRP antagonist HwkWfK were made fresh in media and diluted appropriately. The media used in all challenges and washing steps was DME low glucose with 20 mM Hepes, 100 U/ml PS, 10% FBS. Media was warmed to 37° C. and gassed by placing it into the incubator prior to challenge. On day three, the media was discarded and fresh media (approximately 1 ml) added for the first of three washes. After the last wash, the plate was placed back in the incubator for a 15 min pre-incubation. Then cells were washed 2× (with warmed and gassed media) and fresh 0.5 ml media were added for the second 15 min. pre-incubation. After the second pre-incubation cells were washed 2× as above and 0.5 ml of control and test solutions were added for a final 15 min incubation. After this incubation, the media were removed for subsequent GH ELISA. GH ELISA: A two-site ELISA was used to determine rat GH concentration in the media. Briefly, goat anti-rat GH antibody (lot#19164-20) was used to coat Nunc immunoplates overnight. After blocking and washing, standard (rat GH reference preparation: Parlow) and challenge media is diluted 1:20 prior to GH assay were added for a 1 hr room temperature incubation. STATISTICS: The mean for each group was determined and analyzed by one-way analysis of variance with a post-hoc Student-Newman-Keuls. Significance is defined as P<0.05. The EC50 was calculated using a 4-parameter curve-fit program (Kaleidagraph). Three to four independent EC50s were used to derive the mean and SEM.

[4] = oral; cited from earlier work
ACTH = ACTH release from pituitary cells (RIA); format: cell-based, rat
Procedure: Dispersion: Adult female Sprague-Dawley (160-180 g., Charles River) rats were group-caged in a 12:12 light:dark cycle with food and water available ad libitum. Pituitaries from ten rats were removed, the posterior pituitary discarded and the anterior pituitary placed in Hanks' Balanced Salt Solution (HBSS: without calcium chloride, w/o magnesium chloride, w/o magnesium sulfate; Gibco) containing 20 mM HEPES (Gibco) and 100 U/ml penicillin streptomycin (PS: JRH Biosciences). Under sterile conditions, pituitaries were rinsed twice then minced into small fragments with a razor blade. Fragments were resuspended in 5 ml of HBSS/HEPES containing 20 mg collagenase (Serva 17449) and […] of 1 mg/ml DNase (Sigma) for a 40 min. incubation in a 37° C. gyrotory water bath shaker (New Brunswick Scientific Model G76; setting 10). After the incubation, fragments were triturated to yield small clumps and single cells. The cells were centrifuged 1000× g for 5 min, resuspended, counted and plated at a final cell concentration of 100,000 cells/ml. Incubation media was DME low glucose media w/NaHCO3 (Gibco) containing 20 mM hepes, 100 U/ml PS and 10% FBS (Hyclone A-111-L). Cells were plated at 0.5 ml per well in 48 well plates (Falcon) and incubated at 37° C. in 5% C02 for three days. For challenges to determine release of other pituitary hormones cells were plated at 200,000 cells per ml with 2 ml per well of a Swell plate (Corning). Challenge: A (inip)bbFK-NH2 stock (or other GHRP) concentration of 1 mM was made in DMSO and diluted with warmed media approximately 30 min prior to use. The highest concentration of DMSO in media was 0.1%. […] STATISTICS: The mean for each group was determined and analyzed by one-way analysis of variance with a post-hoc Student-Newman-Keuls. […] The EC50 was calculated using a 4-parameter curve-fit program (Kaleidagraph). […] RIA of pituitary hormones: LH, FSH, TSH, and Prolactin were determined with commercially available kits from Amersham, and ACTH levels were determined by a RIA kit from ICN. […]

[5] = read-out: “Pit” Cell EC50, Table II, prior art compounds, GH release, 15 min incubation

EC50 (rat pituitary cells [2]; [5]): 10.6 nM
Molecule: C[C@@H](O)CNC(C)(C)CC(=O)N[C@@H]1CCc2ccccc2N(Cc2ccc(-c3ccccc3-c3nnn[nH]3)cc2)C1=O [L-692,585, reference compound]
body weight gain (in words) [1]: no significant weight gain
Rat IV ED50 (growth hormone secretion): 10 µg
potency in the rat pituitary cell assay (rat pituitary cell): slightly greater than GHRP-6

Molecule: C[C@H](NC(=O)[C@@H](Cc1c[nH]c2ccccc12)NC(=O)[C@@H](N)Cc1c[nH]cn1)C(=O)N[C@@H](Cc1c[nH]c2ccccc12)C(=O)N[C@H](Cc1ccccc1)C(=O)N[C@@H](CCCCN)C(N)=O [GHRP 6, His-D Trp-Ala-Trp-D Phe-Lys-NH2, reference compound] (H-H[dW]AW[dF]K-NH2)
body weight gain (in words) [1]: significant body weight gain
GH response compared with control (rat pituitary cells [3]; 100 nM): significantly greater than control
increase in GH levels over control (rat pituitary cells [3]; 100 nM): 3 fold
GH release in combination with GHRH (rat pituitary cells [3]; GHRP 100 nM plus GHRH 10 or 100 nM): show synergy with 10 nM GHRH; also recorded: synergistic; also recorded: showed synergy with GHRH
Rat IV ED50 (growth hormone secretion): 1.0 µg
EC50 (rat pituitary cells [2]; read-out: mean EC50, mean ± SE of independent EC50s): 6.2 ± 1.5 nM
absorbed orally [4]: ~0.3%

EC50 (rat pituitary cells [2]; [5]): 26.2 nM
Molecule: CC(C)(N)CC(=O)N[C@@H]1CCc2ccccc2N(Cc2ccc(-c3ccccc3-c3nnn[nH]3)cc2)C1=O [L-692,429, reference compound]
Rat IV ED50 (growth hormone secretion): 100 µg
fold less potent than GHRP-6 (rat pituitary cell): about 6 fold

Molecule: CRF: corticotrophin releasing factor (SEEPPISLDLTFHLLREVLEMARAEQLAQQAHSNRKLMEII; ends and bridges not checked; UniProt P06850 154-194, looked up) [reference compound]
rise in ACTH levels (ACTH): 3 fold

— patent publication US7094869B2, “Low molecular weight peptidomimetic growth hormone secretagogues” (Genentech, Inc., priority 1994, dated 2006)
